Reference: patent US8188270B2, “Polymorphous form of 5-chloro-N-({(5S)-2-oxo-3[4-(3-oxo-4-morpholinyl)-phenyl]-1,3-oxazolidine-5-yl}-methyl)-2-thiophene carboxamide” (Bayer Schering Pharma Aktiengesellschaft, priority 2005, dated 2012)

Assay: Solubility comparison of crystal modifications of the compound of the formula (I)
Format: physicochemical
Details: modification II versus known modification (modification I)

solubility in comparison to the known modification: higher solubility
SMILES: O=C(NC[C@H]1CN(c2ccc(N3CCOCC3=O)cc2)C(=O)O1)c1ccc(Cl)s1 [modification II, 5-chloro-N-({(5S)-2-oxo-3-[4-(3-oxo-4-morpholinyl)-phenyl]-1,3-oxazolidin-5-yl}-methyl)-2-thiophenecarboxamide]
